Data as given in paper PMC9100673, “Acridine Based N-Acylhydrazone Derivatives as Potential Anticancer Agents: Synthesis, Characterization and ctDNA/HSA Spectroscopic Binding Properties” (Molecules, 2022).

Experiments:
[1] = biological target: hTopo IIα (Homo sapiens, UniProt P11388); assay: Topo IIα kDNA decatenation assay; format: biochemical; details: 25, 50 and 100 μM
Experimental: The Topo IIα enzyme catalysed the decatenation of catenated kDNA to closed circular decatenated kDNA. In one specific case, linear (L) and nicked-opened (NC) forms of DNA could by observed. […] The m-Amsacrine (AMSA) (lane 2) was the observed band for catenated DNA.
(§1) Figure 12 The result of Topo I/IIα activity tests in the presence of derivatives 3a–3d. (A) Electrophoretogram for inhibition relaxation activity of hTopo I (2.5 U) by derivatives 3a–3d in concentrations of 25, 50 and 100 μM (lane 5–16), substrate-free SC pBR322 (0.5 μg) (lane 4), camptothecin (CPT, lane 2) and plasmid+hTopo I control (lane 3). (NOC—nicked-opened DNA form; R—relaxed DNA form; SC—supercoiled DNA form). (B) Electrophoretogram for inhibition decatenation activity of hTopo IIα (0.5 U) by derivatives 3a–3d in concentrations of 25, 50 and 100 μM (lane 5–16), substrate-free catenated kinetoplast DNA (cat kDNA) (0.5 μg) (lane 4), m-Amsacrine (AMSA, lane 2) and plasmid +hTopo IIα control (lane 3). (decat DNA—decatenated DNA; NC—nicked circular DNA form; L—linear DNA form).

[2] = biological target: T1, hTopo I (Homo sapiens, UniProt P11387); assay: Topo I DNA relaxation assay; format: biochemical; details: 25, 50 and 100 μM; pBR322
T1 sequence (P11387 1-765): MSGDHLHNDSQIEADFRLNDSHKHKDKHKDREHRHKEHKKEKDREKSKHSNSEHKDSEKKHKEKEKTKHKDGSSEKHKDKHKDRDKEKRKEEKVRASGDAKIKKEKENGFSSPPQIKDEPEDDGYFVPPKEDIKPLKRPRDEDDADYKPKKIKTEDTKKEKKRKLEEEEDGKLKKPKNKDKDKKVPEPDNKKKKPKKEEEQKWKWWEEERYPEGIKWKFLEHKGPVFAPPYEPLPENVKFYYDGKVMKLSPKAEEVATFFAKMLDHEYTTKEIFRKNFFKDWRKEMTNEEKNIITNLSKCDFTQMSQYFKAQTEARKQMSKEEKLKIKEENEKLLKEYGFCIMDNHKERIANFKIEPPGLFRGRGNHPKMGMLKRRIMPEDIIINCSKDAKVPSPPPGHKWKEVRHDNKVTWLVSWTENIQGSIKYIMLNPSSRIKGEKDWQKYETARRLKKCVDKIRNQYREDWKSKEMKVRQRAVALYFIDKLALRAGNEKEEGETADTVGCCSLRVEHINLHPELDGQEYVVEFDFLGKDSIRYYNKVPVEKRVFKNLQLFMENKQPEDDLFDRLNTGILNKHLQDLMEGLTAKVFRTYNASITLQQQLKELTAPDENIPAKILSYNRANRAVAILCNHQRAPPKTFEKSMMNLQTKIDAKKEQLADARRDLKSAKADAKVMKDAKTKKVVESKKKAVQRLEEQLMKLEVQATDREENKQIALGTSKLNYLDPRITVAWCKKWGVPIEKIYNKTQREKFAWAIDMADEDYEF
Text: Topo I enzymes convert the supercoiled (SC) form DNA to relaxed (R) form and nicked-open-circular (NOC) DNA. The NOC form is circular dsDNA with one nicked strength; Topo I nicked only one strength. SC form DNA migrate the fastest in gel, NOC migrates the slowest, and the migration speed of R DNA is in the middle of these two forms. In an electrophoretogram with active Topo I enzymes, SC DNA is not observed, but R and NOC DNA forms can be seen. In the case of Topo I inhibition, bends for R and NOC DNA forms are not observed. The results electrophoretogram effect of derivatives 3a–3d on activity topoisomerase I show Figure 12A.
as §1

[3] = test system: A549 cells; assay: MTT assay, metabolic activity of A549 cells; format: cell-based, human; details: for IC50: Homo sapiens; for SI, selectivity index: 48 h, IC50 CCD-18Co / IC50 A549
Experimental: The effect of acridine-benzohydrazides (3a–3d) on the metabolic activity of the lung adenocarcinoma cell line (A549) and the normal colon fibroblast cell line (CCD-18Co) was evaluated using a 3-(4,5-dimethylthiazol-2-yl)-2,5-diphenyltertrazolium bromide (MTT) cell assay. This assay is based on the metabolization of yellow MTT to purple formazan crystal by mitochondrial dehydrogenases, and therefore only metabolic active cells are capable of that reaction. The CCD-18Co cell line was used as a control to check for derivatives selectivity. The doxorubicin belongs to a group of anthracyclines, which represent the chemotherapeutic regiments for the treatment of NSCLC (non-small cell lung carcinoma) even today, and acts as antineoplastic mainly by interaction with the DNA topoisomerase II and by creating DNA single- and double-strand breaks. Previous studies described detailed cytotoxic effects of doxorubicin in the human lung adenocarcinoma A549 cell line. Doxorubicin resembles our compounds in its biological action; therefore, it was employed as a positive control.
Human lung carcinoma cell line A549 and CCD-18Co colon fibroblasts were purchased from the American Type Culture Collection (ATCC, Rockville, MD, USA). The A549 cells were cultured in a complete RPMI-1640 medium (Sigma-Aldrich, St. Louis, MO, USA) and CCD-18Co cells were cultured in a minimum essential medium (MEM) (PAN-Biotech GmbH, Aidenbach, Germany) at 37 °C, 95% humidity and 5% CO2. The media were supplemented with 10% fetal bovine serum (FBS, Biosera, Nuaille, France) and antibiotics (1% Antibiotic-Antimycotic 100 × and 50 × 10^−3 g L^−1 gentamicin, Biosera). Prior to the selected treatments, cells were seeded on 6- and/or 96-well plates (TPP, Trasadingen, Switzerland) and left to settle for 24 h. The acridine compounds solutions (at concentrations ranging from 5–75 µM) were then added to cells for 24 or 48 h, and analysis was subsequently performed.
MTT assays were performed in order to evaluate changes in the metabolic activity of cells that had occurred as a consequence of treatment with the acridine compounds. A549 cells (15 × 10^3 cells/cm^2) and CCD-18Co (15.625 × 10^3 cells/cm^2) were seeded in 96-well microplates. The A549 cells were treated for 24 and 48 h, and the CCD-18Co cells were treated for 48 h with different concentrations (5, 25, 50 and 75 µM) of the derivatives. After the treatment, the MTT (3-(4,5-dimethylthiazol-2-yl)-2,5-diphenyltertrazolium bromide) solution in PBS (5 mg mL^−1) was added to each well. The reaction was stopped after 4 h incubation, and the formazan was dissolved by the addition of SDS at a final concentration of 3.3%. The absorbance of formazan (λ = 584 nm) was measured using a BMG FLUOstar Optima spectrometer (BMG Labtech GmbH, Offenburg, Germany). The results were evaluated as percentages of the absorbance of the untreated control. Results are presented as the average percentage of cells from three independent experiments. IC50 values for the derivatives were extrapolated from a sigmoidal fit (dose-response curve) to the metabolic activity data using OriginPro 8.5.0 SR1 (OriginLab Corp., Northampton, MA, USA).

Chain of hTopo IIα (P11388 whole entry): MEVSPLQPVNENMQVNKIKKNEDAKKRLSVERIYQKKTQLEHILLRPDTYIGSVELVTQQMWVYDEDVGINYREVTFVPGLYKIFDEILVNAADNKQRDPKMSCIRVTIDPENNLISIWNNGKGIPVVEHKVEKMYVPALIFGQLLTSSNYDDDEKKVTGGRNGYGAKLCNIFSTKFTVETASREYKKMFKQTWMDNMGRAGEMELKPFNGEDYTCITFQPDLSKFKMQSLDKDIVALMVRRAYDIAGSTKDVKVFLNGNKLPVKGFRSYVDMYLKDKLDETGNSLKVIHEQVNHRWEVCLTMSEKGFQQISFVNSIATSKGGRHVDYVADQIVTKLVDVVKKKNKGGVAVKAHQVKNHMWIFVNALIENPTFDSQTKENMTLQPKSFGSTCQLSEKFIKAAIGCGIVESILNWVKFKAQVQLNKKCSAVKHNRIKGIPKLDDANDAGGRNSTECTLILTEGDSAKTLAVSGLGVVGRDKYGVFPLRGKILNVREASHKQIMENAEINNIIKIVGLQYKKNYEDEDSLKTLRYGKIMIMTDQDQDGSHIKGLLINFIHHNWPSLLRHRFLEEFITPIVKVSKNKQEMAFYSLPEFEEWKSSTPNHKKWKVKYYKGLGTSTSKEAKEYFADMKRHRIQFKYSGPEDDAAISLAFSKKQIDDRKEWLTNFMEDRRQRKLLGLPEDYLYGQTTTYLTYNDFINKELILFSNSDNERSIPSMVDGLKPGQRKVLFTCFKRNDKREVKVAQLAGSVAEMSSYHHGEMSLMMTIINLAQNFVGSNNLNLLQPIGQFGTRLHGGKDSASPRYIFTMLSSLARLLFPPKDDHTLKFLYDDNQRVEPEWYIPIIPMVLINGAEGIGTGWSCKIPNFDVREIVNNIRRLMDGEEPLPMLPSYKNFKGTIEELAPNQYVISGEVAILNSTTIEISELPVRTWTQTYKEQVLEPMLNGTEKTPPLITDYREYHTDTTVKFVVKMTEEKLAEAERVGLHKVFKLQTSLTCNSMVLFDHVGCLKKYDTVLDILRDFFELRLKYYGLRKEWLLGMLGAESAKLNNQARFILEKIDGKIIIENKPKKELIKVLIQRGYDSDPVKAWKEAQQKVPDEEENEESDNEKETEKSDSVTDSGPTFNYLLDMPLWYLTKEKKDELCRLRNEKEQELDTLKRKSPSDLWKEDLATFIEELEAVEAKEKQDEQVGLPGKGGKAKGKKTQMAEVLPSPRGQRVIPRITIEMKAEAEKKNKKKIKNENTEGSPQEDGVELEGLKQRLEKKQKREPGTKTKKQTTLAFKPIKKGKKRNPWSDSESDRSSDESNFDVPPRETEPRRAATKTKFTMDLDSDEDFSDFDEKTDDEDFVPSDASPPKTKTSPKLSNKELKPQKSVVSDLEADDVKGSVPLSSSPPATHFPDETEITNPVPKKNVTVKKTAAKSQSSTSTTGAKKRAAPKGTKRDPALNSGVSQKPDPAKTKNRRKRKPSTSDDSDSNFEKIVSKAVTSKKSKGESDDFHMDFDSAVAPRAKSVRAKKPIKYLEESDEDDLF

## O=C(N/N=C/c1cccc2cc3ccccc3nc12)c1ccccc1 [3a, N′-[(E)-(Acridin-4-yl)methylidene]benzohydrazide]
[1]
  inhibition of decatenation activity of Topo IIα: No obvious inhibitory effects
[2]
  inhibition of relaxation activity of Topo I: did not have the potential to inhibit
other
  melting point: 235 to 236 °C
[3]; A549, 24 h
  IC50: > 75 µM
[3]; A549, 48 h
  IC50: 43 µM

## O=C(N/N=C/c1cccc2cc3ccccc3nc12)c1ccc(F)cc1 [3b, N′-[(E)-Acridin-4-ylmethylidene]-4-fluorobenzohydrazide]
[1]
  inhibition of decatenation activity of Topo IIα: No obvious inhibitory effects
[2]
  inhibition of relaxation activity of Topo I: did not have the potential to inhibit
other
  melting point: 229 to 230 °C
[3]
  SI, selectivity index: 0.22
[3]; A549, 24 h
  IC50: > 75 µM
[3]; A549, 48 h
  IC50: 37 µM

## O=C(N/N=C/c1cccc2cc3ccccc3nc12)c1ccc(Cl)cc1 [3c, N′-[(E)-Acridin-4-ylmethylidene]-4-chlorobenzohydrazide]
[1]
  inhibition of decatenation activity of Topo IIα: partial inhibition
[2]
  inhibition of relaxation activity of Topo I: might inhibit the relaxation activity of Topo I
other
  melting point: 266 to 267 °C
[3]
  SI, selectivity index: 0.36
[3]; A549, 24 h
  IC50: 73 µM
[3]; A549, 48 h
  IC50: 45 µM

## O=C(N/N=C/c1cccc2cc3ccccc3nc12)c1ccc(Br)cc1 [3d, N′-[(E)-Acridin-4-ylmethylidene]-4-bromobenzohydrazide]
[1]
  inhibition of decatenation activity of Topo IIα: partial inhibition
[2]
  inhibition of relaxation activity of Topo I: might inhibit the relaxation activity of Topo I
other
  melting point: 269 to 270 °C
[3]
  SI, selectivity index: 0.31
[3]; A549, 24 h
  IC50: > 75 µM
[3]; A549, 48 h
  IC50: 55 µM
